Measurements published in patent publication US8697661B2, “Use of spinosyns and spinosyn compositions against herpesviridae viral infections” (priority 2009, dated 2014).
Like-named read-outs stand apart in the source and are kept apart here.

What was measured:
[1] = tested on: Vero cells; experiment: Toxicity assay on Vero cells; assay type: cell-based, African Green Monkey
[2] = tested on: Herpes Simplex Virus type 2, Strain MS-HSV2; experiment: IC50 assay against HSV2 in Vero cells; assay type: cell-based; details: 50-100 infectious units of HSV2
[3] = tested on: murine Leukemia Virus (ATCC VR-1445); experiment: Inhibition of murine Leukemia Virus in feline PG4 cells; assay type: cell-based; details: 10 μg/ml spinosad, virus load of 30 infectious units
[4] = tested on: Respiratory Syncytial Virus Strain A2-RSV; assay type: cell-based; details: 9.5 μg/ml spinosad, virus load of 50-100 infectious units, HEp2 cells
[5] = tested on: isolated mitochondria of H460 cells; experiment: Oxygen consumption in isolated mitochondria, Seahorse XF24; assay type: biochemical; details: 4° C. for three hours
[6] = tested on: Plasmodium falciparum, strain 3D7; details: 2% spinosad dispersion in DMSO
[7] = tested on: macrophage mice cell type J774; details: read-out: Cytotoxicity CC50; J774
[8] = tested on: leishmania donovati
[9] = tested on: BxPC-3 Human pancreatic adenocarcinoma; details: for Cell Survival (% of Control; mean ± S.D.): 24-hour exposure, 24 h post end of exposure
[10] = tested on: DU 145 Human prostatic carcinoma cells; details: for Cell Survival (% of Control; mean ± S.D.): 24-hour exposure, 24 h post end of exposure
[11] = tested on: PC-3 Human prostatic adenocarcinoma cells; details: for Cell Survival (% of Control; mean ± S.D.): 24-hour exposure, 24 h post end of exposure
[12] = tested on: MDA-MB-231 Human breast adenocarcinoma cells; details: for Cell Survival (% of Control; mean ± S.D.): 24-hour exposure, 24 h post end of exposure
[13] = tested on: PC-3 Human prostatic adenocarcinoma cells; experiment: Cell proliferation assay, PC-3; details: 24 hours of exposure (control 3.22)
Method: (§1) Cell Proliferation assay: for each cell line, cell suspensions ranging in concentration of approximately 2-5×10^5 cells/mL of growth medium were prepared. 1 mL of each of these suspensions was aseptically transferred to a sterile tissue culture flask (12.5 or 25 cm^2) containing fresh growth medium. Three flasks (triplicate) were used for each group, and for each time point of viable cell number/mL measurement at 1, 3 and 5 days post-treatment (9 dishes per group in total). The cells were incubated and allowed to adhere to the bottom of the flasks and proliferate.
(§2) After approximately 24 hours of exposure to treatments, dosing media was replaced with fresh growth media and cells were returned to the incubator and allowed to proliferate.
(§3) Assessment of Cell Proliferation: For each cell line, measurement of viable cell number/mL was performed as already described above. This measurement was performed in triplicate from three flasks per group, at 1, 3 and 5 days post-removal of treatment.

[14] = tested on: BxPC-3 Human pancreatic adenocarcinoma; experiment: Cell proliferation assay, BxPC-3; details: 24 hours of exposure (control 3.02)
Method: as §1, §2, §3

[15] = tested on: DU 145 Human prostatic carcinoma cells; experiment: Cell proliferation assay, DU 145; details: for Cell Number Doubling Time: 24 hours of exposure (control 2.17)
Method: as §1, §2, §3

[16] = tested on: MDA-MB-231 Human breast adenocarcinoma cells; experiment: Cell proliferation assay, MDA-MB-231; details: for Cell Number Doubling Time: 24 hours of exposure (control 3.11)
Method: as §1, §2, §3

[17] = tested on: Leishmania donovati MON-2 promastigotes; experiment: In vitro test against Leishmania promastigotes; details: read-out: Promastigotes IC50; stationary-phase promastigotes, 26° C.
[18] = tested on: BxPC-3, DU 145, PC-3 and MDA-MB-231; experiment: Cell proliferation assay, all cell lines tested; details: low dose level 5 μg/mL
Method: as §1, §2, §3

[19] = tested on: Cytomegalovirus, Davis Strain-CMV; experiment: Inhibition of Cytomegalovirus in HS27 fibroblasts; details: 4.75 μg/ml spinosad, virus load of 50-100 infectious units, HS27 cells
[20] = tested on: Plasmodium falciparum 3D7 rings and trophozoites; experiment: Susceptibility of different stages of P. falciparum; details: 3D7 parasites, 48 h, 1% initial parasitemia
[21] = tested on: Plasmodium vinckei; experiment: In vivo test against Plasmodium vinckei parasites in mice; details: BALB/c female mice, 25 mg/kg intraperitoneally daily for 6 consecutive days in DMSO; vs DMSO control; P=0.0085
[22] = tested on: Herpes Simplex Virus 1 McIntyre (HSV1); experiment: IC50 assay against HSV1 in Vero cells (cytopathic effect); details: 100 infectious units of Herpes Simplex 1, up to 5 days
Method: We performed an IC50 assay, in which the amount of virus in the quadruplicate assay wells is identical, and the concentration of drug varies over a range of ten concentrations. This assay was performed in a 48 well tissue culture dish, each well containing the appropriate cell line at approximately 90% confluence. […] Approximately 100 infectious units per well were added to each test well. Cells, HSV1 virus and drug are incubated for up to 5 days and cytopathic effect is determined.

[23] = tested on: Leishmania donovati MON-2 amastigotes; experiment: In vitro test against Leishmania amastigotes in J774 macrophages; details: read-out: Amastigotes IC50; infected J774 macrophages
[24] = tested on: Plasmodium falciparum; experiment: ATP levels in the Plasmodium parasite, luciferin/luciferase assay
[25] = spinosad 10 μg/mL, succinate substrate
[26] = spinosad 20 μg/mL, succinate substrate
[27] = spinosad 40 μg/mL, succinate substrate
[28] = spinosad 80 μg/mL, succinate substrate
[29] = BxPC-3, 24 h post end of 24-hour exposure
[30] = DU 145, 24 h post end of 24-hour exposure
[31] = PC-3, 24 h post end of 24-hour exposure
[32] = MDA-MB-231, 24 h post end of 24-hour exposure

## Spinosad
[1]
  state of treated cell monolayer: healthy
  toxicity against Vero cells: no toxicity
[2]
  IC50: about 5 μg/ml
  IC100: about 11.5 μg/ml
[3]
  inhibition of virus: no inhibition
[4]
  inhibition of virus: no inhibition
[5]; 20 μg of spinosad
  ADP stimulation: slight increase
[5]; succinate substrate
  spinosad concentration above which mitochondrial integrity is reduced: above 40 μg/mL
[5]; [25]
  State III respiration (numerator of RCR): 711
  State IV respiration (denominator of RCR): 300
[5]; [26]
  State III respiration (numerator of RCR): 726
  State IV respiration (denominator of RCR): 330
[5]; [27]
  State III respiration (numerator of RCR): 666
  State IV respiration (denominator of RCR): 430
[5]; [28]
  State III respiration (numerator of RCR): 598
  State IV respiration (denominator of RCR): 500
[6]
  IC50: about 0.625 μg/ml
[7]
  CC50: 42.6 ± 17.3 µM
[8]; BALB/c female mice, 31.6 mg/kg intraperitoneally daily for 14 consecutive days in DMSO, from two weeks post infection, P=0.05
  elimination of parasites in spleen: 82%
[8]; BALB/c female mice, 31.6 mg/kg intraperitoneally daily for 14 consecutive days in DMSO, P=0.083
  elimination of parasites in the liver: 73%
[8]; BALB/c mice, 31.6 mg/kg i.p. 14 days, Mann-Whitney test
  impact on liver and spleen weight: no impact
[8]; BALB/c mice, treatment period of 14 days
  signs of toxicity: No sign of toxicity
[9]; [29]
  Calculated LC50: 11.1 mg/L
  Calculated LC100: 31.6 µg/mL
[9]; BxPC-3, spinosad 10 μg/mL
  Cell Survival (% of Control; mean ± S.D.): 54.1 ± 9.8 % of Control
[9]; BxPC-3, spinosad 20 μg/mL
  Cell Survival (% of Control; mean ± S.D.): 25.5 ± 2.6 % of Control
[9]; BxPC-3, spinosad 30 μg/mL
  Cell Survival (% of Control; mean ± S.D.): 5.3 ± 2.6 % of Control
[10]; [30]
  Calculated LC50: 12.5 mg/L
  Calculated LC100: 32.8 µg/mL
[10]; DU 145, spinosad 10 μg/mL
  Cell Survival (% of Control; mean ± S.D.): 56.8 ± 3.1 % of Control
[10]; DU 145, spinosad 20 μg/mL
  Cell Survival (% of Control; mean ± S.D.): 30.2 ± 4.5 % of Control
[10]; DU 145, spinosad 30 μg/mL
  Cell Survival (% of Control; mean ± S.D.): 7.6 ± 4.1 % of Control
[11]; [31]
  Calculated LC50: 13.3 mg/L
  Calculated LC100: 34.2 µg/mL
[11]; PC-3, spinosad 10 μg/mL
  Cell Survival (% of Control; mean ± S.D.): 53.8 ± 8.0 % of Control
[11]; PC-3, spinosad 20 μg/mL
  Cell Survival (% of Control; mean ± S.D.): 42.0 ± 9.5 % of Control
[11]; PC-3, spinosad 30 μg/mL
  Cell Survival (% of Control; mean ± S.D.): 5.9 ± 2.5 % of Control
[12]; [32]
  Calculated LC50: 13.4 mg/L
  Calculated LC100: 36.7 µg/mL
[12]; MDA-MB-231, spinosad 10 μg/mL
  Cell Survival (% of Control; mean ± S.D.): 56.1 ± 13.7 % of Control
[12]; MDA-MB-231, spinosad 20 μg/mL
  Cell Survival (% of Control; mean ± S.D.): 38.0 ± 5.7 % of Control
[12]; MDA-MB-231, spinosad 30 μg/mL
  Cell Survival (% of Control; mean ± S.D.): 13.2 ± 1.4 % of Control
[13]; PC-3, spinosad 5 μg/mL
  Cell Number Doubling Time: 4.17 days
[13]; PC-3, spinosad 10 μg/mL
  Cell Number Doubling Time: 5.55 days
[13]; PC-3, spinosad 15 μg/mL
  Cell Number Doubling Time: 6.24 days
[14]; BxPC-3, spinosad 5 μg/mL
  Cell Number Doubling Time: 3.86 days
[14]; BxPC-3, spinosad 10 μg/mL
  Cell Number Doubling Time: 4.76 days
[14]; BxPC-3, spinosad 15 μg/mL
  Cell Number Doubling Time: 6.25 days
[15]; DU 145, spinosad 5 μg/mL
  Cell Number Doubling Time: 2.89 days
[15]; DU 145, spinosad 10 μg/mL
  Cell Number Doubling Time: 2.83 days
[15]; DU 145, spinosad 15 μg/mL
  Cell Number Doubling Time: 3.18 days
[15]; high dose level 15 μg/mL, DU 145
  cell number doubling time from 3 days post-treatment increased by: approximately 46.5%
[16]; MDA-MB-231, spinosad 5 μg/mL
  Cell Number Doubling Time: 3.99 days
[16]; MDA-MB-231, spinosad 10 μg/mL
  Cell Number Doubling Time: 5.09 days
[16]; MDA-MB-231, spinosad 15 μg/mL
  Cell Number Doubling Time: 7.13 days
[16]; high dose level 15 μg/mL, MDA-MB-231
  cell number doubling time from 3 days post-treatment increased by: approximately 129.3%
[17]
  IC50: 9.5 ± 3.8 µM
[18]
  cell number doubling time from 3 days post-treatment increased by: 27.8-33.2%
[19]
  inhibition of virus: no inhibition
[20]
  activity against rings versus trophozoites: same activity against both rings and trophozoites
[21]
  reduction in the number of Plasmodium vinckei parasites: 70%
[22]
  IC50: about 17.42 μg/ml
[23]
  IC50: 9 ± 3 µM
[24]; albumin-containing medium (RPMI-1640), within erythrocytes and after isolation, spinosad 5-10 μg/ml in DMSO
  ATP levels in the parasite: reduces
[24]; isolated parasites in saline/spinosad medium (absence of albumin)
  ATP levels in the parasite: unaffected
